Reference: ChEMBL document CHEMBL5537151, “Design, synthesis and bioactivity evaluation of novel fusion peptides and their CPT conjugates inducing effective anti-tumor responses on HER2 positive tumors” (Eur J Med Chem, 2024)
Peptide text beside a SMILES is read from it. * marks the point of attachment. X2 = CCC1(OC(=O)CCCCCN2C(=O)CC(*)C2=O)C(=O)OCc2c1cc1n(c2=O)Cc2cc3ccccc3nc2-1; X1 = CCC1(C(=O)OCCS*)C(=O)OCc2c1cc1n(c2=O)Cc2cc3ccccc3nc2-1; X5 = CCC1(OC(=O)CCS*)C(=O)OCc2c1cc1n(c2=O)Cc2cc3ccccc3nc2-1

Legend:
[1] = test system: NCI-N87; assay: cells; details: Homo sapiens, NCI-N87, 48 h
Description: Cytotoxicity against HER-positive human NCI-N87 cells incubated for 48 hrs by CCK-8 assay

[2] = test system: SK-OV-3; assay: cells; details: Homo sapiens, SK-OV-3, 48 h
Description: Cytotoxicity against HER-positive human SK-OV-3 cells incubated for 48 hrs by CCK-8 assay

[3] = test system: SK-BR-3; assay: cells; details: Homo sapiens, SK-BR-3, 48 h
Description: Cytotoxicity against HER-positive human SK-BR-3 cells incubated for 48 hrs by CCK-8 assay

[4] = test system: MDA-MB-231; assay: cells; details: Homo sapiens, MDA-MB-231, 48 h
Description: Cytotoxicity against HER-negative human MDA-MB-231 cells incubated for 48 hrs by CCK-8 assay

[5] = Cytotoxicity against HER-negative human MCF-10A cells incubated for 48 hrs by CCK-8 assay; format: toxicity, cell-based

| Structure (SMILES) | IC50 [1] | IC50 [2] | IC50 [3] | IC50 [4] | IC50 at 48 h [5] |
| --- | --- | --- | --- | --- | --- |
| CC[C@H](C)[C@H](NC(=O)[C@@H]1CCCN1C(=O)[C@@H](NC(=O)[C@H](C)N)C(C)C)C(=O)N[C@@H](C)C(=O)N[C@@H](CCC(N)=O)C(=O)N[C@@H](CCCCN)C(=O)N[C@@H](CSC1CC(=O)N(CCCCCC(=O)OC2(CC)C(=O)OCc3c2cc2n(c3=O)Cc3cc4ccccc4nc3-2)C1=O)C(=O)NCC(=O)N[C@@H](Cc1ccccc1)C(=O)N[C@@H](CC(C)C)C(=O)NCC(=O)N[C@@H](CC(N)=O)C(=O)N1CCC[C@H]1C(=O)N[C@@H](CC(N)=O)C(=O)N[C@@H](Cc1c[nH]c2ccccc12)C(=O)NCC(=O)N[C@@H](CCCNC(=N)N)C(=O)N[C@@H](CO)C(=O)N[C@@H](Cc1c[nH]c2ccccc12)C(=O)N[C@@H](Cc1ccc(O)cc1)C(=O)N[C@@H](CC(N)=O)C(=O)N[C@@H](CCC(N)=O)C(=O)N[C@@H](CCCNC(=N)N)C(=O)N[C@@H](Cc1ccccc1)C(=O)N[C@@H](CCCCN)C(N)=O (stereo not given in full) (H-AVPIAQKC(X2)GFLGNPNWGRSWYNQRFK-NH2) | 20.1 µM | > 50 µM | 15.7 µM | 28.2 µM | > 50 µM |
| CC[C@H](C)[C@H](NC(=O)[C@@H]1CCCN1C(=O)[C@@H](NC(=O)[C@H](C)N)C(C)C)C(=O)N[C@@H](C)C(=O)N[C@@H](CCC(N)=O)C(=O)N[C@@H](CCCCN)C(=O)N[C@@H](CSSCCC(=O)OC1(CC)C(=O)OCc2c1cc1n(c2=O)Cc2cc3ccccc3nc2-1)C(=O)NCC(=O)N[C@@H](Cc1ccccc1)C(=O)N[C@@H](CC(C)C)C(=O)NCC(=O)N[C@@H](CC(N)=O)C(=O)N1CCC[C@H]1C(=O)N[C@@H](CC(N)=O)C(=O)N[C@@H](Cc1c[nH]c2ccccc12)C(=O)NCC(=O)N[C@@H](CCCNC(=N)N)C(=O)N[C@@H](CO)C(=O)N[C@@H](Cc1c[nH]c2ccccc12)C(=O)N[C@@H](Cc1ccc(O)cc1)C(=O)N[C@@H](CC(N)=O)C(=O)N[C@@H](CCC(N)=O)C(=O)N[C@@H](CCCNC(=N)N)C(=O)N[C@@H](Cc1ccccc1)C(=O)N[C@@H](CCCCN)C(N)=O (stereo not given in full) (H-AVPIAQKC(X5)GFLGNPNWGRSWYNQRFK-NH2) | 6.53 µM | 5.81 µM | 1.78 µM | 16.2 µM | 22.1 µM |
| CC[C@H](C)[C@H](NC(=O)[C@@H]1CCCN1C(=O)[C@@H](NC(=O)[C@H](C)N)C(C)C)C(=O)N[C@@H](C)C(=O)N[C@@H](CCC(N)=O)C(=O)N[C@@H](CCCCN)C(=O)NCC(=O)N[C@@H](Cc1ccccc1)C(=O)N[C@@H](CC(C)C)C(=O)NCC(=O)N[C@@H](CSSCCOC(=O)C1(CC)C(=O)OCc2c1cc1n(c2=O)Cc2cc3ccccc3nc2-1)C(=O)N[C@@H](CC(N)=O)C(=O)N1CCC[C@H]1C(=O)N[C@@H](CC(N)=O)C(=O)N[C@@H](Cc1c[nH]c2ccccc12)C(=O)NCC(=O)N[C@@H](CCCNC(=N)N)C(=O)N[C@@H](CO)C(=O)N[C@@H](Cc1c[nH]c2ccccc12)C(=O)N[C@@H](Cc1ccc(O)cc1)C(=O)N[C@@H](CC(N)=O)C(=O)N[C@@H](CCC(N)=O)C(=O)N[C@@H](CCCNC(=N)N)C(=O)N[C@@H](Cc1ccccc1)C(=O)N[C@@H](CCCCN)C(N)=O (stereo not given in full) (H-AVPIAQKGFLGC(X1)NPNWGRSWYNQRFK-NH2) | 5.93 µM | 8.24 µM | 2.59 µM | 10.6 µM | 15.1 µM |
| CC[C@H](C)[C@H](NC(=O)[C@@H]1CCCN1C(=O)[C@@H](NC(=O)[C@H](C)N)C(C)C)C(=O)N[C@@H](C)C(=O)N[C@@H](CCC(N)=O)C(=O)N[C@@H](CCCCN)C(=O)NCC(=O)N[C@@H](Cc1ccccc1)C(=O)N[C@@H](CC(C)C)C(=O)NCC(=O)N[C@@H](CSC1CC(=O)N(CCCCCC(=O)OC2(CC)C(=O)OCc3c2cc2n(c3=O)Cc3cc4ccccc4nc3-2)C1=O)C(=O)N[C@@H](CC(N)=O)C(=O)N1CCC[C@H]1C(=O)N[C@@H](CC(N)=O)C(=O)N[C@@H](Cc1c[nH]c2ccccc12)C(=O)NCC(=O)N[C@@H](CCCNC(=N)N)C(=O)N[C@@H](CO)C(=O)N[C@@H](Cc1c[nH]c2ccccc12)C(=O)N[C@@H](Cc1ccc(O)cc1)C(=O)N[C@@H](CC(N)=O)C(=O)N[C@@H](CCC(N)=O)C(=O)N[C@@H](CCCNC(=N)N)C(=O)N[C@@H](Cc1ccccc1)C(=O)N[C@@H](CCCCN)C(N)=O (stereo not given in full) (H-AVPIAQKGFLGC(X2)NPNWGRSWYNQRFK-NH2) | 25.3 µM | > 50 µM | 18.3 µM | 30.6 µM | > 50 µM |
